Assay results reported in ChEMBL document CHEMBL1201862, “PubChem BioAssay data set” (2004).
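Tested at 5 concentrations; 48 h exposure; 96-well plates; endpoints linearly interpolated, else capped at highest concentration. GI50: concentration for 50% inhibition of growth.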 The source made the active and inactive calls. No stated cut-off is given here; in the data, active = GI50 up to about 1.1 µM and inactive = higher.

Assays:
Test in all cases: NCI anticancer screen, dose series, 48 h
SK-MEL-28 = test system: SK-MEL-28
U-251 = test system: U-251
UACC-62 = test system: UACC-62
NCI/ADR-RES = test system: NCI/ADR-RES
KM12 = test system: KM12
SW-620 = test system: SW-620
CAKI-1 = test system: CAKI-1
A549 = test system: A549
SK-MEL-2 = test system: SK-MEL-2
NCI-H23 = test system: NCI-H23
PC-3 = test system: PC-3
SF-268 = test system: SF-268
ACHN = test system: ACHN
SF-295 = test system: SF-295
MOLT-4 = test system: MOLT-4
NCI-H522 = test system: NCI-H522
COLO 205 = test system: COLO 205
SNB-19 = test system: SNB-19
SR = test system: SR
HOP-62 = test system: HOP-62
SF-539 = test system: SF-539
MDA-MB-435 = test system: MDA-MB-435
IGROV-1 = test system: IGROV-1
OVCAR-3 = test system: OVCAR-3
NCI-H226 = test system: NCI-H226
HCT-15 = test system: HCT-15
HCC 2998 = test system: HCC 2998
SK-OV-3 = test system: SK-OV-3
HT-29 = test system: HT-29
SK-MEL-5 = test system: SK-MEL-5
EKVX = test system: EKVX
M14 = test system: M14
NCI-H460 = test system: NCI-H460
HCT-116 = test system: HCT-116
BT-549 = test system: BT-549
HL-60 = test system: HL-60
OVCAR-4 = test system: OVCAR-4
UO-31 = test system: UO-31
RPMI-8226 = test system: RPMI-8226
RXF 393 = test system: RXF 393
OVCAR-8 = test system: OVCAR-8
SN12C = test system: SN12C
OVCAR-5 = test system: OVCAR-5
LOX IMVI = test system: LOX IMVI
A498 = test system: A498
T47D = test system: T47D
K562 = test system: K562
TK-10 = test system: TK-10
Malme-3M = test system: Malme-3M
DU-145 = test system: DU-145
UACC-257 = test system: UACC-257
CCRF-CEM = test system: CCRF-CEM
HOP-92 = test system: HOP-92
786-0 = test system: 786-0

Question: O=c1c2cc(I)ccc2nc(-c2cccs2)n1Nc1ccccc1 was tested. Which GI50 (SK-MEL-28) did it give?
Answer: 17.9 µM (inactive)

Question: What about the GI50 (U-251) of the same compound?
Answer: 10.4 µM (inactive)

Question: And the GI50 (UACC-62)?
Answer: 0.719 µM (active)

Question: What about the GI50 (NCI/ADR-RES) of the same compound?
Answer: 22.3 µM (inactive)

Question: What about the GI50 (KM12) of the same compound?
Answer: 4.14 µM (inactive)

Question: What about the GI50 (SW-620) of the same compound?
Answer: 2.72 µM (inactive)

Question: What about the GI50 (CAKI-1) of the same compound?
Answer: 11 µM (inactive)

Question: What about the GI50 (A549) of the same compound?
Answer: 1.06 µM (active)

Question: And the GI50 (SK-MEL-2)?
Answer: 0.33 µM (active)

Question: And the GI50 (NCI-H23)?
Answer: 19.9 µM (inactive)

Question: And the GI50 (PC-3)?
Answer: 1.61 µM (inactive)

Question: What about the GI50 (SF-268) of the same compound?
Answer: 14.1 µM (inactive)

Question: And the GI50 (ACHN)?
Answer: 0.675 µM (active)

Question: And the GI50 (SF-295)?
Answer: 0.383 µM (active)

Question: What about the GI50 (MOLT-4) of the same compound?
Answer: 8.17 µM (inactive)

Question: And the GI50 (NCI-H522)?
Answer: 0.849 µM (active)

Question: And the GI50 (COLO 205)?
Answer: 1.64 µM (inactive)

Question: And the GI50 (SNB-19)?
Answer: 23.5 µM (inactive)

Question: And the GI50 (SR)?
Answer: 12.1 µM (inactive)

Question: And the GI50 (HOP-62)?
Answer: 18.8 µM (inactive)

Question: And the GI50 (SF-539)?
Answer: 33.5 µM (inactive)

Question: And the GI50 (MDA-MB-435)?
Answer: 0.649 µM (active)

Question: And the GI50 (IGROV-1)?
Answer: 1.39 µM (inactive)

Question: And the GI50 (OVCAR-3)?
Answer: 1.16 µM (inactive)

Question: What about the GI50 (NCI-H226) of the same compound?
Answer: 14.1 µM (inactive)

Question: What about the GI50 (HCT-15) of the same compound?
Answer: 5.78 µM

Question: And the GI50 (HCC 2998)?
Answer: 16 µM (inactive)

Question: And the GI50 (SK-OV-3)?
Answer: 13.9 µM (inactive)

Question: What about the GI50 (HT-29) of the same compound?
Answer: 3.21 µM (inactive)

Question: And the GI50 (SK-MEL-5)?
Answer: 6.79 µM (inactive)

Question: And the GI50 (EKVX)?
Answer: 13.5 µM (inactive)

Question: And the GI50 (M14)?
Answer: 1.5 µM (inactive)

Question: What about the GI50 (NCI-H460) of the same compound?
Answer: 0.458 µM (active)

Question: And the GI50 (HCT-116)?
Answer: 12.2 µM (inactive)

Question: What about the GI50 (BT-549) of the same compound?
Answer: 3.14 µM (inactive)

Question: What about the GI50 (HL-60) of the same compound?
Answer: 0.416 µM (active)

Question: What about the GI50 (OVCAR-4) of the same compound?
Answer: 3.06 µM (inactive)

Question: What about the GI50 (UO-31) of the same compound?
Answer: 0.889 µM (active)

Question: What about the GI50 (RPMI-8226) of the same compound?
Answer: 4.61 µM (inactive)

Question: And the GI50 (RXF 393)?
Answer: 39.3 µM (inactive)

Question: What about the GI50 (OVCAR-8) of the same compound?
Answer: 2.08 µM (inactive)

Question: And the GI50 (SN12C)?
Answer: 46.8 µM (inactive)

Question: What about the GI50 (OVCAR-5) of the same compound?
Answer: 30.5 µM (inactive)

Question: What about the GI50 (LOX IMVI) of the same compound?
Answer: 0.117 µM (active)

Question: CCCCCCCCCCCCC/C=C/[C@H]1[C@@H](C(=O)OC)N1[S+]([O-])c1ccc(C)cc1 (stereo partly drawn) was tested. Which GI50 (SK-MEL-28) did it give?
Answer: > 100 µM (inactive)

Question: And the GI50 (A498)?
Answer: > 100 µM (inactive)

Question: What about the GI50 (U-251) of the same compound?
Answer: > 100 µM (inactive)

Question: And the GI50 (UACC-62)?
Answer: > 100 µM (inactive)

Question: What about the GI50 (T47D) of the same compound?
Answer: 22.9 µM (inactive)

Question: And the GI50 (SW-620)?
Answer: > 100 µM (inactive)

Question: And the GI50 (SK-MEL-2)?
Answer: > 100 µM (inactive)

Question: And the GI50 (NCI-H23)?
Answer: > 100 µM (inactive)

Question: And the GI50 (PC-3)?
Answer: > 100 µM (inactive)

Question: And the GI50 (ACHN)?
Answer: > 100 µM (inactive)

Question: What about the GI50 (MOLT-4) of the same compound?
Answer: 87.5 µM (inactive)

Question: And the GI50 (K562)?
Answer: 31.3 µM (inactive)

Question: And the GI50 (NCI-H522)?
Answer: 71.4 µM (inactive)

Question: What about the GI50 (COLO 205) of the same compound?
Answer: > 100 µM (inactive)

Question: What about the GI50 (SR) of the same compound?
Answer: 21.3 µM (inactive)

Question: And the GI50 (HOP-62)?
Answer: > 100 µM (inactive)

Question: What about the GI50 (MDA-MB-435) of the same compound?
Answer: > 100 µM (inactive)

Question: And the GI50 (IGROV-1)?
Answer: > 100 µM (inactive)

Question: And the GI50 (OVCAR-3)?
Answer: > 100 µM (inactive)

Question: What about the GI50 (TK-10) of the same compound?
Answer: > 100 µM (inactive)

Question: What about the GI50 (Malme-3M) of the same compound?
Answer: > 100 µM (inactive)

Question: And the GI50 (DU-145)?
Answer: > 100 µM (inactive)

Question: And the GI50 (UACC-257)?
Answer: 36.3 µM (inactive)

Question: What about the GI50 (SK-MEL-5) of the same compound?
Answer: 35.8 µM (inactive)

Question: What about the GI50 (EKVX) of the same compound?
Answer: 88.3 µM (inactive)

Question: And the GI50 (HCT-116)?
Answer: > 100 µM (inactive)

Question: What about the GI50 (BT-549) of the same compound?
Answer: > 100 µM (inactive)

Question: And the GI50 (HL-60)?
Answer: 21.2 µM (inactive)

Question: And the GI50 (CCRF-CEM)?
Answer: 52.5 µM (inactive)

Question: What about the GI50 (UO-31) of the same compound?
Answer: > 100 µM (inactive)

Question: What about the GI50 (RPMI-8226) of the same compound?
Answer: 12.1 µM (inactive)

Question: And the GI50 (HOP-92)?
Answer: > 100 µM (inactive)

Question: What about the GI50 (786-0) of the same compound?
Answer: > 100 µM (inactive)

Question: What about the GI50 (LOX IMVI) of the same compound?
Answer: > 100 µM (inactive)
